Patent US4636520A, “Antifungal composition employing pyrrolnitrin in combination with an imidazole compound” (Fujisawa Pharmaceutical Co., Ltd., priority 1984, dated 1987)
Converted amounts (≈) assume the structure as drawn. Where two headings read alike, the source gives them in different places.

How the values were obtained:
Format in all cases: cell-based
Candida albicans FP580 [1] = test: Antimicrobial test 2 (agar plate MIC), organism d
Procedure: (§1) Pyrrolnitrin (PY) alone, clotrimazole (CL) alone, miconazole alone, econazole alone, oxyconazole alone and 1:1 mixtures of PY and CL, PY and miconazole, PY and econazole and PY and oxyconazole were test for antimicrobial activity in various strains of microorganisms.
(§2) d: Candida albicans FP580
(§3) Compositions A was prepared as stated above.
(§4) Composition F, G and H: A milk-white suspension containing 10 mg of miconazole (Composition F), a transparent solution containing 10 mg of econazole (Composition G) and a milk-white suspension containing 10 mg of oxyconazole (Composition H) were respectively prepared in a similar way to that of Composition B.
(§5) Composition I: The above-mentioned Compositions A and F were mixed together in a volume ratio of 1:1 to give a suspension.
(§6) Composition J: The above-mentioned Compositions A and G were mixed together in a volume ratio of 1:1 to give a suspension.
(§7) Composition K: The above-mentioned Compositions A and H were mixed together in a volume ratio of 1:1 to give a suspension.
(§8) Plates with varied active ingredient concentrations were prepared by admixing each of Compositions A and F to K prepared in the above manner with Sabouraud agar medium, followed by appropriate dilution with the medium. These plates were inoculated respectively with each of the test organisms a and d and incubated at 30° C. for 48 hours. The minimum inhibitory concentration (MIC; μg/ml) at which the growth of each test organism is inhibited was determined.
(§9) The FIC indexes given in the parentheses of Tables 1 and 2 were calculated by using the following formulas. [formula]

Candida albicans Yu-1200 [2] = test: Antimicrobial test 2 (agar plate MIC), organism a
Procedure: as §1
(§10) a: Candida albicans Yu-1200
as §3, §4, §5, §6, §7, §8, §9

Candida albicans Yu-1200 [3] = test: Antimicrobial test 1 (agar plate MIC), organism a
Procedure: (§11) Pyrrolnitrin (PY) alone, clotrimazole (CL) alone, a 2:1 mixture of PY and CL, a 1:1 mixture of PY and CL and 1:2 mixture of PY and CL were tested for antimicrobial activity in various strains of microorganisms.
as §10
(§12) Composition A: PY (10 mg) was dissolved in 1 ml of ethanol, and the solution is mixed with 9 ml of sterilized water to give a milk-white suspension.
(§13) Composition B: CL (10 mg) was dissolved in 1 ml of N,N-dimethylformamide, and the solution was mixed with 9 ml of sterilized water to give a milk-white suspension.
(§14) Composition C: The above Compositions A and B were mixed together in a volume ratio of 2:1 to give a suspension. […]
as §8, with “A-E” for “A and F to K”, “medium (for test organisms a-f) or Mueller-Hinton medium (for test organism g),” for “medium,”, “a-g” for “a and d”, “under the conditions given below, and the” for “at 30° C. for 48 hours. The”, “determined. […]” for “determined.”
(§15) The FIC indexes given in the parentheses of Tables 1 and 2 were calculated by using the following formulas. […]

Candida albicans FP581 = test: Antimicrobial test 1 (agar plate MIC), organism e
Procedure: as §11
e: Candida albicans FP581
as §12, §13, §14
as §8, with “A-E” for “A and F to K”, “medium (for test organisms a-f) or Mueller-Hinton medium (for test organism g),” for “medium,”, “a-g” for “a and d”, “under the conditions given below, and the” for “at 30° C. for 48 hours. The”, “determined. […]” for “determined.”
as §15

[4] = test system: Aspergillus oryzae IFO 5239; test: Antimicrobial test 1 (agar plate MIC), organism f; conditions: IFO5239, 168 h
Procedure: as §11
f: Aspergillus oryzae IFO 5239
as §12, §13, §14
as §8, with “A-E” for “A and F to K”, “medium (for test organisms a-f) or Mueller-Hinton medium (for test organism g),” for “medium,”, “a-g” for “a and d”, “under the conditions given below, and the” for “at 30° C. for 48 hours. The”, “determined. […]” for “determined.”
as §15

Candida albicans FP580 [5] = test: Antimicrobial test 1 (agar plate MIC), organism d
Procedure: as §11, §2, §12, §13, §14
as §8, with “A-E” for “A and F to K”, “medium (for test organisms a-f) or Mueller-Hinton medium (for test organism g),” for “medium,”, “a-g” for “a and d”, “under the conditions given below, and the” for “at 30° C. for 48 hours. The”, “determined. […]” for “determined.”
as §15

[6] = test system: Staphylococcus epidermidis 91; test: Antimicrobial test 1 (agar plate MIC), organism g
Procedure: as §11
g: Staphylococcus epidermidis 91
as §12, §13, §14
as §8, with “A-E” for “A and F to K”, “medium (for test organisms a-f) or Mueller-Hinton medium (for test organism g),” for “medium,”, “a-g” for “a and d”, “under the conditions given below, and the” for “at 30° C. for 48 hours. The”, “determined. […]” for “determined.”
as §15

Candida albicans FP578 = test: Antimicrobial test 1 (agar plate MIC), organism b
Procedure: as §11
b: Candida albicans FP578
as §12, §13, §14
as §8, with “A-E” for “A and F to K”, “medium (for test organisms a-f) or Mueller-Hinton medium (for test organism g),” for “medium,”, “a-g” for “a and d”, “under the conditions given below, and the” for “at 30° C. for 48 hours. The”, “determined. […]” for “determined.”
as §15

Candida albicans FP579 = test: Antimicrobial test 1 (agar plate MIC), organism c
Procedure: as §11
c: Candida albicans FP579
as §12, §13, §14
as §8, with “A-E” for “A and F to K”, “medium (for test organisms a-f) or Mueller-Hinton medium (for test organism g),” for “medium,”, “a-g” for “a and d”, “under the conditions given below, and the” for “at 30° C. for 48 hours. The”, “determined. […]” for “determined.”
as §15

Clc1ccc(COC(Cn2ccnc2)c2ccc(Cl)cc2Cl)cc1 (stereo not shown) [Composition G, 1-[2-[(4-chlorophenyl)methoxy]-2-(2,4-dichlorophenyl)ethyl]-1H-imidazole]
MIC (Candida albicans FP580 [1]; Candida albicans, FP580, 48 h): 6.25 µg/mL (≈ 16.4 µM)
MIC (Candida albicans Yu-1200 [2]; Candida albicans, YU1200, 48 h): 6.25 µg/mL (≈ 16.4 µM)

Clc1ccc(COC(Cn2ccnc2)c2ccc(Cl)cc2Cl)c(Cl)c1 (stereo not shown) [Composition F, 1-[2-(2,4-dichlorophenyl)-2-[(2,4-dichlorophenyl)methoxy]ethyl]-1H-imidazole]
MIC (Candida albicans FP580 [1]; Candida albicans, FP580, 48 h): 12.5 µg/mL (≈ 30 µM)
MIC (Candida albicans Yu-1200 [2]; Candida albicans, YU1200, 48 h): 6.25 µg/mL (≈ 15 µM)

O=[N+]([O-])c1c(Cl)cccc1-c1c[nH]cc1Cl [Composition A, 3-(2-nitro-3-chlorophenyl)-4-chloropyrrole]
MIC (Candida albicans Yu-1200 [3]; YU1200, Candida albicans Yu-1200, Sabouraud agar, 37° C., 24 hours, read-out: MIC): 100 µg/mL (≈ 389 µM)
MIC (Candida albicans FP581; Candida albicans FP581, Sabouraud agar, 37° C., 24 hours, read-out: MIC): > 100 µg/mL
MIC (Candida albicans FP580 [1]; Candida albicans FP580, Sabouraud agar, 30° C., 48 hours, read-out: MIC): 0.78 µg/mL (≈ 3.03 µM)
MIC ([4]; Aspergillus oryzae IFO 5239, Sabouraud agar, 30° C., 1 week, read-out: MIC): > 100 µg/mL
MIC (Candida albicans FP580 [5]; Candida albicans FP580, Sabouraud agar, 37° C., 24 hours, read-out: MIC): 1.56 µg/mL (≈ 6.07 µM)
MIC ([6]; Staphylococcus epidermidis 91, Mueller-Hinton medium, 37° C., 20 hours, read-out: MIC): 100 µg/mL (≈ 389 µM)
MIC (Candida albicans FP578; Candida albicans FP578, Sabouraud agar, 37° C., 24 hours, read-out: MIC): 3.13 µg/mL (≈ 12.2 µM)
MIC (Candida albicans FP579; Candida albicans FP579, Sabouraud agar, 37° C., 24 hours, read-out: MIC): 25 µg/mL (≈ 97.2 µM)
MIC (Candida albicans Yu-1200 [2]; YU1200, Candida albicans Yu-1200, Sabouraud agar, 30° C., 48 hours, read-out: MIC): 100 µg/mL (≈ 389 µM)

Clc1ccccc1C(c1ccccc1)(c1ccccc1)n1ccnc1 [Composition B, 1-[(2-chlorophenyl)diphenylmethyl]-1H-imidazole]
MIC (Candida albicans Yu-1200 [3]; Candida albicans, YU1200, 24 h): 6.25 µg/mL (≈ 18.1 µM)
MIC (Candida albicans FP581; Candida albicans, FP581, 24 h): 25 µg/mL (≈ 72.5 µM)
MIC ([4]; Aspergillus oryzae): 12.5 µg/mL (≈ 36.2 µM)
MIC (Candida albicans FP580 [5]; Candida albicans, FP580, 24 h): 6.25 µg/mL (≈ 18.1 µM)
MIC ([6]; Staphylococcus epidermidis, 91, 20 h): 25 µg/mL (≈ 72.5 µM)
MIC (Candida albicans FP578; Candida albicans, FP578, 24 h): 6.25 µg/mL (≈ 18.1 µM)
MIC (Candida albicans FP579; Candida albicans, FP579, 24 h): 6.25 µg/mL (≈ 18.1 µM)

Clc1ccc(C(Cn2ccnc2)=NOCc2ccc(Cl)cc2Cl)cc1 [Composition H]
MIC (Candida albicans FP580 [1]; Candida albicans FP580, Sabouraud agar, 30° C., 48 hours): 25 µg/mL (≈ 63.3 µM)
MIC (Candida albicans Yu-1200 [2]; Candida albicans Yu-1200, Sabouraud agar, 30° C., 48 hours): 25 µg/mL (≈ 63.3 µM)
